Columns and labels:
B. subtilis 168 [1] = assay: fitness (endpoint OD595 vs no drug) (fraction); higher = more growth
Outline: (§1)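 Plates with 384 wells were inoculated at OD595 0.01 using 30 µl of TSB, LB Lennox or CY, or 55 µl for S. pneumoniae. Incubation was at 37 °C, with OD595 measured every 30 min for 14 h. Fitness is the stationary-phase transition optical density over the robust mean of no-drug control wells, after first-reading background subtraction; it is capped at 1.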

S. aureus DSM 20231 [2] = assay: as above
Outline: as §1

S. pneumoniae D39V [3] = assay: as above
Outline: as §1

S. aureus Newman = assay: Bliss interaction score (quartile over a dose matrix) (fitness difference); higher = more antagonism (negative = synergy)
Outline: (§2)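 Each plate was normalised to the robust mean of its own no-drug wells, using OD595 at entry into stationary phase, with values capped at 1. This normalised growth is the fitness value. The Bliss score is the difference between observed and product-expected fitness, with single-drug fitness inferred from the combination data and quartiles taken over technical, biological and donor/recipient replicates.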

B. subtilis 168 [4] = assay: as above
Outline: as §2

S. aureus DSM 20231 [5] = assay: as above
Outline: as §2

S. pneumoniae D39V [6] = assay: as above
Outline: as §2
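Throughout, for Bliss interaction score (quartile over a dose matrix): first quartile when negative (synergy) and third quartile when positive (antagonism).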

CC(=O)NC[C@H]1CN(c2ccc(N3CCOCC3)c(F)c2)C(=O)O1 [Linezolid] + COc1ccc(C[C@H](N)C(=O)N[C@H]2[C@@H](O)[C@H](n3cnc4c(N(C)C)ncnc43)O[C@@H]2CO)cc1 [Puromycin]
one replicate
Conditions | fitness
B. subtilis 168 [1], first compound 0.0625 µg/mL, partner 0.39 µg/mL | 0.885
B. subtilis 168 [1], first compound 0.0625 µg/mL, partner 0.78 µg/mL | 0.885
B. subtilis 168 [1], first compound 0.0625 µg/mL, partner 1.56 µg/mL | 0.904
S. aureus DSM 20231 [2], first compound 0.125 µg/mL, partner 3.12 µg/mL | 0.824
S. aureus DSM 20231 [2], first compound 0.125 µg/mL, partner 6.24 µg/mL | 0.287
S. aureus DSM 20231 [2], first compound 0.25 µg/mL, partner 3.12 µg/mL | 0.344
S. aureus DSM 20231 [2], first compound 0.25 µg/mL, partner 6.24 µg/mL | 0.118
S. aureus DSM 20231 [2], first compound 0.5 µg/mL, partner 3.12 µg/mL | 0.0742
S. aureus DSM 20231 [2], first compound 0.5 µg/mL, partner 6.24 µg/mL | 0.0788
S. aureus DSM 20231 [2], first compound 1 µg/mL, partner 0.39 µg/mL | 0.0293
S. aureus DSM 20231 [2], first compound 1 µg/mL, partner 0.78 µg/mL | 0.0469
S. aureus DSM 20231 [2], first compound 1 µg/mL, partner 1.56 µg/mL | 0.0437
S. pneumoniae D39V [3], first compound 0.2 µg/mL, partner 1 µg/mL | 0.712
S. pneumoniae D39V [3], first compound 0.2 µg/mL, partner 2 µg/mL | 0.742
S. pneumoniae D39V [3], first compound 0.2 µg/mL, partner 4 µg/mL | 0.608
S. pneumoniae D39V [3], first compound 0.4 µg/mL, partner 1 µg/mL | 0.564
S. pneumoniae D39V [3], first compound 0.4 µg/mL, partner 2 µg/mL | 0.599
S. pneumoniae D39V [3], first compound 0.4 µg/mL, partner 4 µg/mL | 0.404
S. pneumoniae D39V [3], first compound 0.8 µg/mL, partner 1 µg/mL | 0.181
S. pneumoniae D39V [3], first compound 0.8 µg/mL, partner 2 µg/mL | 0.215
S. pneumoniae D39V [3], first compound 0.8 µg/mL, partner 4 µg/mL | 0.15

fitness
Conditions | first compound 0.105 µg/mL | first compound 0.125 µg/mL | first compound 0.21 µg/mL | first compound 0.25 µg/mL | first compound 0.42 µg/mL | first compound 0.5 µg/mL
B. subtilis 168 [1], partner 0.39 µg/mL | – | 0.55 | – | 0.0916 | – | 0.0287
B. subtilis 168 [1], partner 0.78 µg/mL | – | 0.569 | – | 0.118 | – | 0.0397
B. subtilis 168 [1], partner 1.56 µg/mL | – | 0.599 | – | 0.128 | – | 0.0443
S. aureus DSM 20231 [2], partner 0.39 µg/mL | – | 0.91 | – | 0.595 | – | 0.193
S. aureus DSM 20231 [2], partner 0.78 µg/mL | – | 0.849 | – | 0.591 | – | 0.209
S. aureus DSM 20231 [2], partner 1.56 µg/mL | – | 0.944 | – | 0.578 | – | 0.152
S. pneumoniae D39V [3], partner 1 µg/mL | 0.833 | – | 0.746 | – | 0.606 | –
S. pneumoniae D39V [3], partner 2 µg/mL | 0.788 | – | 0.685 | – | 0.323 | –
S. pneumoniae D39V [3], partner 4 µg/mL | 0.644 | – | 0.446 | – | 0.233 | –

Conditions | Bliss interaction score
B. subtilis 168 [4] | 0.075
S. aureus DSM 20231 [5] | -0.0587
S. aureus Newman | -0.0605
S. pneumoniae D39V [6] | -0.132

CC(=O)NC[C@H]1CN(c2ccc(N3CCOCC3)c(F)c2)C(=O)O1 [Linezolid] + C[n+]1ccc(-c2cc[n+](C)cc2)cc1 [Paraquat]
fitness, one replicate
Conditions | partner 1.25 µg/mL | partner 1.5 µg/mL | partner 2.5 µg/mL | partner 3 µg/mL | partner 5 µg/mL | partner 6 µg/mL
B. subtilis 168 [1], first compound 0.0625 µg/mL | 0.876 | – | 0.876 | – | 0.749 | –
S. aureus DSM 20231 [2], first compound 1 µg/mL | 0.0626 | – | 0.0623 | – | 0.0727 | –
S. pneumoniae D39V [3], first compound 0.2 µg/mL | – | 0.883 | – | 0.921 | – | 0.93
S. pneumoniae D39V [3], first compound 0.4 µg/mL | – | 0.822 | – | 0.853 | – | 0.874
S. pneumoniae D39V [3], first compound 0.8 µg/mL | – | 0.621 | – | 0.626 | – | 0.727

fitness
Conditions | first compound 0.105 µg/mL | first compound 0.125 µg/mL | first compound 0.21 µg/mL | first compound 0.25 µg/mL | first compound 0.42 µg/mL | first compound 0.5 µg/mL
B. subtilis 168 [1], partner 1.25 µg/mL | – | 0.562 | – | 0.068 | – | 0.0393
B. subtilis 168 [1], partner 2.5 µg/mL | – | 0.521 | – | 0.0848 | – | 0.0301
B. subtilis 168 [1], partner 5 µg/mL | – | 0.531 | – | 0.101 | – | 0.0453
S. aureus DSM 20231 [2], partner 1.25 µg/mL | – | 0.812 | – | 0.6 | – | 0.234
S. aureus DSM 20231 [2], partner 2.5 µg/mL | – | 0.768 | – | 0.63 | – | 0.295
S. aureus DSM 20231 [2], partner 5 µg/mL | – | 0.845 | – | 0.654 | – | 0.323
S. pneumoniae D39V [3], partner 1.5 µg/mL | 0.876 | – | 0.76 | – | 0.598 | –
S. pneumoniae D39V [3], partner 3 µg/mL | 0.836 | – | 0.743 | – | 0.565 | –
S. pneumoniae D39V [3], partner 6 µg/mL | 0.826 | – | 0.711 | – | 0.565 | –

Conditions | Bliss interaction score
B. subtilis 168 [4] | 0.0297
S. aureus DSM 20231 [5] | 0.0716
S. aureus Newman | -0.0403
S. pneumoniae D39V [6] | 0.109

CC(=O)NC[C@H]1CN(c2ccc(N3CCOCC3)c(F)c2)C(=O)O1 [Linezolid] + Cc1cc(NS(=O)(=O)c2ccc(N)cc2)no1 [Sulfamethoxazol]
fitness, one replicate
Conditions | partner 0.5 µg/mL | partner 1 µg/mL | partner 2 µg/mL | partner 4 µg/mL
B. subtilis 168 [1], first compound 0.0625 µg/mL | – | 0.94 | 0.895 | 0.828
B. subtilis 168 [1], first compound 0.125 µg/mL | 0.858 | – | – | –
B. subtilis 168 [1], first compound 0.25 µg/mL | 0.446 | – | – | –
B. subtilis 168 [1], first compound 0.5 µg/mL | 0.0399 | – | – | –
S. aureus DSM 20231 [2], first compound 1 µg/mL | – | 0.0364 | 0.0289 | 0.0207
S. pneumoniae D39V [3], first compound 0.2 µg/mL | – | 0.777 | 0.817 | 0.726
S. pneumoniae D39V [3], first compound 0.4 µg/mL | – | 0.368 | 0.674 | 0.661
S. pneumoniae D39V [3], first compound 0.8 µg/mL | – | 0.348 | 0.427 | 0.397

fitness
Conditions | first compound 0.105 µg/mL | first compound 0.125 µg/mL | first compound 0.21 µg/mL | first compound 0.25 µg/mL | first compound 0.42 µg/mL | first compound 0.5 µg/mL
B. subtilis 168 [1], partner 1 µg/mL | – | 0.606 | – | 0.2 | – | 0.0228
B. subtilis 168 [1], partner 2 µg/mL | – | 0.525 | – | 0.13 | – | 0.0265
B. subtilis 168 [1], partner 4 µg/mL | – | 0.515 | – | 0.0743 | – | 0.0275
S. aureus DSM 20231 [2], partner 1 µg/mL | – | 0.844 | – | 0.55 | – | 0.167
S. aureus DSM 20231 [2], partner 2 µg/mL | – | 0.865 | – | 0.533 | – | 0.161
S. aureus DSM 20231 [2], partner 4 µg/mL | – | 0.852 | – | 0.557 | – | 0.186
S. pneumoniae D39V [3], partner 1 µg/mL | 0.774 | – | 0.688 | – | 0.463 | –
S. pneumoniae D39V [3], partner 2 µg/mL | 0.772 | – | 0.71 | – | 0.48 | –
S. pneumoniae D39V [3], partner 4 µg/mL | 0.821 | – | 0.729 | – | 0.48 | –

Conditions | Bliss interaction score
B. subtilis 168 [4] | -0.0478
S. aureus DSM 20231 [5] | -0.03
S. aureus Newman | 0.0723
S. pneumoniae D39V [6] | -0.0972

CC(=O)NC[C@H]1CN(c2ccc(N3CCOCC3)c(F)c2)C(=O)O1 [Linezolid] + Cc1ncc([N+](=O)[O-])n1CCO [Metronidazole]
fitness, one replicate
Conditions | partner 0.625 µg/mL | partner 1.25 µg/mL | partner 2.5 µg/mL
B. subtilis 168 [1], first compound 0.0625 µg/mL | 0.86 | 0.895 | 0.875
S. aureus DSM 20231 [2], first compound 1 µg/mL | 0.0445 | 0.0462 | 0.042

Conditions | fitness
B. subtilis 168 [1], first compound 0.125 µg/mL, partner 0.625 µg/mL | 0.648
B. subtilis 168 [1], first compound 0.125 µg/mL, partner 1.25 µg/mL | 0.607
B. subtilis 168 [1], first compound 0.125 µg/mL, partner 2.5 µg/mL | 0.597
B. subtilis 168 [1], first compound 0.25 µg/mL, partner 0.625 µg/mL | 0.0733
B. subtilis 168 [1], first compound 0.25 µg/mL, partner 1.25 µg/mL | 0.0982
B. subtilis 168 [1], first compound 0.25 µg/mL, partner 2.5 µg/mL | 0.105
B. subtilis 168 [1], first compound 0.5 µg/mL, partner 0.625 µg/mL | 0.0494
B. subtilis 168 [1], first compound 0.5 µg/mL, partner 1.25 µg/mL | 0.0531
B. subtilis 168 [1], first compound 0.5 µg/mL, partner 2.5 µg/mL | 0.0511
S. aureus DSM 20231 [2], first compound 0.125 µg/mL, partner 0.625 µg/mL | 0.947
S. aureus DSM 20231 [2], first compound 0.125 µg/mL, partner 1.25 µg/mL | 0.94
S. aureus DSM 20231 [2], first compound 0.125 µg/mL, partner 2.5 µg/mL | 0.942
S. aureus DSM 20231 [2], first compound 0.25 µg/mL, partner 0.625 µg/mL | 0.621
S. aureus DSM 20231 [2], first compound 0.25 µg/mL, partner 1.25 µg/mL | 0.723
S. pneumoniae D39V [3], first compound 0.105 µg/mL, partner 1.25 µg/mL | 0.866
S. pneumoniae D39V [3], first compound 0.105 µg/mL, partner 2.5 µg/mL | 0.877
S. pneumoniae D39V [3], first compound 0.105 µg/mL, partner 5 µg/mL | 0.841
S. pneumoniae D39V [3], first compound 0.2 µg/mL, partner 1.073 µg/mL | 0.832
S. pneumoniae D39V [3], first compound 0.2 µg/mL, partner 2.145 µg/mL | 0.804
S. pneumoniae D39V [3], first compound 0.2 µg/mL, partner 4.29 µg/mL | 0.817
S. pneumoniae D39V [3], first compound 0.21 µg/mL, partner 1.25 µg/mL | 0.776
S. pneumoniae D39V [3], first compound 0.21 µg/mL, partner 2.5 µg/mL | 0.78
S. pneumoniae D39V [3], first compound 0.21 µg/mL, partner 5 µg/mL | 0.753
S. pneumoniae D39V [3], first compound 0.4 µg/mL, partner 1.073 µg/mL | 0.741
S. pneumoniae D39V [3], first compound 0.4 µg/mL, partner 2.145 µg/mL | 0.77
S. pneumoniae D39V [3], first compound 0.4 µg/mL, partner 4.29 µg/mL | 0.714
S. pneumoniae D39V [3], first compound 0.42 µg/mL, partner 1.25 µg/mL | 0.663
S. pneumoniae D39V [3], first compound 0.42 µg/mL, partner 2.5 µg/mL | 0.646
S. pneumoniae D39V [3], first compound 0.42 µg/mL, partner 5 µg/mL | 0.63
S. pneumoniae D39V [3], first compound 0.8 µg/mL, partner 2.145 µg/mL | 0.445
S. pneumoniae D39V [3], first compound 0.8 µg/mL, partner 4.29 µg/mL | 0.424

Conditions | Bliss interaction score
B. subtilis 168 [4] | 0.103
S. aureus DSM 20231 [5] | 0.111
S. aureus Newman | 0.0844
S. pneumoniae D39V [6] | 0.143
